Data as given in ChEMBL document CHEMBL5338789, “Structure-Based Development of Isoform-Selective Inhibitors of Casein Kinase 1ε vs Casein Kinase 1δ” (J Med Chem, 2023).
Values belong to the compound of their own block, whether it stands above or below them. Activity calls are given as the source filed them. No cut-off for these calls is given here.

Key:
[1] = biological target: T1, Casein kinase I isoform delta (Homo sapiens, UniProt P48730); test: Inhibition of CK1delta (unknown origin) using Light-TopoIla(Thr1342) peptide as substrate incubated for 10 mins in presence of ATP by TR-FRET assay
Target sequence in this assay (P48730 whole entry, canonical isoform): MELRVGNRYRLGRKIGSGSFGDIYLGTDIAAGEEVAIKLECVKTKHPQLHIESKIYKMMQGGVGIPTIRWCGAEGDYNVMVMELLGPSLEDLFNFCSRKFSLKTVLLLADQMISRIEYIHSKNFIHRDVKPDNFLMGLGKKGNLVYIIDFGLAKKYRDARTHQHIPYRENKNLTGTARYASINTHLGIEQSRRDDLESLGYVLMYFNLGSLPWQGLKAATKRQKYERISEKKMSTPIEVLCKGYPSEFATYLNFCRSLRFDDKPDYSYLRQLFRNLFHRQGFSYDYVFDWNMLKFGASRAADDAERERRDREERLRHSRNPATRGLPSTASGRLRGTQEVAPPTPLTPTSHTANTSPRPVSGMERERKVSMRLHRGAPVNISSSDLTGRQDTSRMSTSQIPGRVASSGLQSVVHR

U2OS = test: Antiproliferative activity against human U2OS cells assessed as reduction in cell proliferation incubated for 72 hrs by Cell Titer Glo assay; type: functional, cell-based
5637 = test: Antiproliferative activity against human 5637 cells assessed as reduction in cell proliferation incubated for 72 hrs by Cell Titer Glo assay; type: functional, cell-based; conditions: Homo sapiens, 5637, 72 h
T-24 = test: Antiproliferative activity against human T24 cells assessed as reduction in cell proliferation incubated for 72 hrs by Cell Titer Glo assay; type: functional, cell-based; conditions: T-24, 72 h
UMUC3 = test: Antiproliferative activity against human UMUC3 cells assessed as reduction in cell proliferation incubated for 72 hrs by Cell Titer Glo assay; type: functional, cell-based; conditions: UMUC3, 72 h
[2] = biological target: T1, Casein kinase I isoform delta; test: Inhibition of N-terminal His-tagged CK1delta (unknown origin) expressed in Escherichia coli using Light-TopoIla(Thr1342) peptide as substrate at 10 uM incubated for 10 mins in presence of ATP by TR-FRET assay
Target sequence in this assay (P48730 whole entry, looked up, canonical isoform): as the sequence (P48730 whole entry, canonical isoform) above

[3] = biological target: T1, Casein kinase I isoform delta; test: Inhibition of CK1delta (unknown origin)
Target sequence in this assay (P48730 whole entry, canonical isoform): as above

[4] = biological target: Casein kinase I isoform epsilon (Homo sapiens, UniProt P49674); test: Inhibition of CK1epsilon (unknown origin)
Sequence of Casein kinase I isoform epsilon (P49674 whole entry, canonical isoform): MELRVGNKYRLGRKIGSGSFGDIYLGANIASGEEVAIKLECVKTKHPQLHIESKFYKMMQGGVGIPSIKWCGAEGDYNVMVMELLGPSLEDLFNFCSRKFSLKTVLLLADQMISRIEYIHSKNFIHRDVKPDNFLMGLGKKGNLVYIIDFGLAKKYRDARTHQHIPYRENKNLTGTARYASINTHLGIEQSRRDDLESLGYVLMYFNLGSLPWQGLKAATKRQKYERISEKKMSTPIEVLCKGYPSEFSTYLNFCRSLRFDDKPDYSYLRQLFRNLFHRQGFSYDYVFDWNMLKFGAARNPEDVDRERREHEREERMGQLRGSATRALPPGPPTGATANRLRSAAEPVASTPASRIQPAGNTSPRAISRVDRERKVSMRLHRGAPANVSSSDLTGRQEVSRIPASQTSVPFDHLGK

Structure (SMILES): Fc1cccc(-n2cnc3c(NCc4nc5c(F)c(F)ccc5[nH]4)nc(N4CCOCC4)nc32)c1
EC50 (U2OS): 0.009 µM
EC50 5637: 0.006 µM
EC50 (T-24): 0.008 µM
EC50 (UMUC3): 0.026 µM

Structure (SMILES): COc1ccc(-n2cnc3c(NCc4nc5c(F)c(F)ccc5[nH]4)nc(N4CCOCC4)nc32)cc1
EC50 (U2OS): 0.164 µM
EC50 5637: 0.106 µM
EC50 (T-24): 0.095 µM
EC50 (UMUC3): 5.78 µM

Structure (SMILES): Fc1cccc(Cn2cnc3c(NCc4nc5c(F)c(F)ccc5[nH]4)nc(N4CCOCC4)nc32)c1
IC50 [1]: > 10 µM

Structure (SMILES): Fc1ccc2[nH]c(CNc3nc(N4CCOCC4)nc4c3ncn4CCc3cccc(Cl)c3)nc2c1F
IC50 [1]: > 10 µM
inhibition [2]: inactive

Structure (SMILES): N#Cc1ccc(CCn2cnc3c(NCc4nc5c(F)c(F)ccc5[nH]4)nc(N4CCOCC4)nc32)cc1
IC50 [1]: > 10 µM

Structure (SMILES): Fc1ccc2[nH]c(CNc3nc(N4CCOCC4)nc4c3ncn4-c3ccc4ncsc4c3)nc2c1F
IC50 [1]: > 10 µM

Structure (SMILES): CC(C)Oc1ccc(-n2cnc3c(NCc4nc5c(F)c(F)ccc5[nH]4)nc(N4CCOCC4)nc32)cc1
IC50 [1]: > 10 µM
inhibition [2]: inactive

Structure (SMILES): Fc1ccc2[nH]c(CNc3nc(N4CCOCC4)nc4c3ncn4CCc3cccc(Br)c3)nc2c1F
IC50 [1]: > 10 µM

Structure (SMILES): Fc1ccc2[nH]c(CNc3nc(N4CCOCC4)nc4c3ncn4Cc3cccc4ccccc34)nc2c1F
IC50 [1]: > 10 µM

Structure (SMILES): O=C(Nc1nc2cc(Cl)c(F)cc2[nH]1)c1coc(NC(=O)c2ccccc2OC(F)(F)F)n1
IC50 [3]: 0.042 µM
IC50 [4]: 0.033 µM

Structure (SMILES): Fc1ccc2[nH]c(CNc3nc(N4CCOCC4)nc4c3ncn4Cc3ccc4ccccc4c3)nc2c1F
IC50 [1]: > 10 µM

Continued, in another order:

IC50 [1]: > 10 µM
Structure (SMILES): Fc1cc(F)cc(CCn2cnc3c(NCc4nc5c(F)c(F)ccc5[nH]4)nc(N4CCOCC4)nc32)c1

IC50 [1]: > 10 µM
inhibition [2]: inactive
Structure (SMILES): Fc1ccc2[nH]c(CNc3nc(N4CCOCC4)nc4c3ncn4CCc3ccc(C(F)(F)F)cc3)nc2c1F

IC50 [1]: > 10 µM
Structure (SMILES): Fc1ccc2[nH]c(CNc3nc(N4CCOCC4)nc4c3ncn4CCc3cccc(C(F)(F)F)c3)nc2c1F

IC50 [1]: > 10 µM
Structure (SMILES): Fc1cccc(CCn2cnc3c(NCc4nc5c(F)c(F)ccc5[nH]4)nc(N4CCOCC4)nc32)c1

IC50 [1]: > 10 µM
Structure (SMILES): CCOc1ccc(-n2cnc3c(NCc4nc5c(F)c(F)ccc5[nH]4)nc(N4CCOCC4)nc32)cc1

IC50 [1]: > 10 µM
EC50 (U2OS): 0.373 µM
Structure (SMILES): Fc1ccc2[nH]c(CNc3nc(N4CCOCC4)nc4c3ncn4-c3ccc4ccccc4c3)nc2c1F
EC50 5637: 0.314 µM
EC50 (T-24): 0.265 µM
EC50 (UMUC3): 0.54 µM

IC50 [1]: > 10 µM
Structure (SMILES): Fc1ccc2[nH]c(CNc3nc(N4CCOCC4)nc4c3ncn4-c3ccc4c(c3)OCCO4)nc2c1F
